Measurements reported in PubChem BioAssay (NCI).
“And” between values parts separate entries of the source, which are not always exact repeats. Equal values may be shown once.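 1) Cells in 96-well plates. 2) Compound, 48 h, 5 concentrations. 3) Linear interpolation between surrounding doses. 4) Unreached endpoint = highest concentration. At the GI50, growth is halved. TGI marks complete inhibition of growth.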

Columns and labels:
Assay in all cases: NCI anticancer screen, dose series, 48 h
ACHN renal = system: ACHN renal
COLO 205 colon = system: COLO 205 colon
IGROV1 ovarian = system: IGROV1 ovarian
KM20L2 colon = system: KM20L2 colon
UO-31 renal = system: UO-31 renal
HOP-92 NSCLC = system: HOP-92 NSCLC
HL-60(TB) leukemia = system: HL-60(TB) leukemia
RPMI-8226 leukemia = system: RPMI-8226 leukemia
SR leukemia = system: SR leukemia
SNB-19 CNS = system: SNB-19 CNS

| SMILES | GI50 (ACHN renal) | TGI (ACHN renal) | GI50 (COLO 205 colon) | TGI (COLO 205 colon) | GI50 (IGROV1 ovarian) | TGI (IGROV1 ovarian) | GI50 (KM20L2 colon) | TGI (KM20L2 colon) | GI50 (UO-31 renal) | TGI (UO-31 renal) | GI50 (HOP-92 NSCLC) | TGI (HOP-92 NSCLC) | GI50 (HL-60(TB) leukemia) | TGI (HL-60(TB) leukemia) | GI50 (RPMI-8226 leukemia) | TGI (RPMI-8226 leukemia) | TGI (SR leukemia) | TGI (SNB-19 CNS) | GI50 (SNB-19 CNS) | GI50 (SR leukemia) |
| --- | --- | --- | --- | --- | --- | --- | --- | --- | --- | --- | --- | --- | --- | --- | --- | --- | --- | --- | --- | --- |
| COc1ccc(/C(=N\NC(=S)NN)C(c2ccc(OC)cc2)C2C(=O)Oc3ccccc32)cc1 (stereo not given) | > 100 µM | > 100 µM | > 100 µM | > 100 µM | > 100 µM | > 100 µM | > 100 µM | > 100 µM | > 100 µM | > 100 µM | > 100 µM | > 100 µM | > 100 µM | > 100 µM | > 100 µM | > 100 µM | > 100 µM |  |  |  |
| O=C(N/N=C/c1cccc(F)c1)c1ccncc1 |  | > 100 µM |  | > 100 µM |  |  |  | > 100 µM |  |  |  | > 100 µM |  | > 100 µM |  | > 100 µM | > 100 µM | > 100 µM |  |  |
| CSC(=S)N/N=C/c1nccc2ccccc12 |  | 12.2 µM |  | 1.58 µM |  | 8.05 µM |  | > 27.6 µM |  | 9.4 µM |  | 6.36 µM |  | 6.69 µM |  | 11.6 µM | 18.8 µM | > 27.1 µM |  |  |
| CC(=O)N1CCC2(c3ccccc3N(C(C)=O)C2c2ccc(O)cc2)C1C(=O)O (stereo not given) |  | > 100 µM |  | > 100 µM |  |  |  | > 100 µM |  | > 100 µM |  | > 100 µM |  | > 100 µM |  | > 100 µM | > 100 µM | > 100 µM |  |  |
| CSC1=Nc2ccccc2N=C(c2ccc(Cl)cc2)C1 |  | > 100 µM |  | > 100 µM |  | > 100 µM |  | > 100 µM |  | > 100 µM |  |  |  | > 100 µM |  | > 100 µM | > 100 µM | > 100 µM |  |  |
| N/N=C1\C(=O)N(CCc2ccccc2)C(=O)C1C(=O)NCCc1ccccc1 (stereo not given) |  | > 100 µM |  |  |  | > 100 µM |  | > 100 µM |  | > 100 µM |  | > 100 µM |  | > 100 µM |  | > 100 µM | > 100 µM | > 100 µM |  |  |
| CC(C)(C)c1cc(C=C(C#N)C#N)cc(C(C)(C)C)c1O |  | 20.2 µM | 0.363 µM and 0.191 µM | 0.369 µM | 0.493 µM | > 247 µM |  | 73.2 µM |  | 0.891 µM and 3.7 µM | 0.212 µM | 0.768 µM and 0.139 µM |  | 2.48 µM | 0.101 µM and 0.0877 µM |  | 12.6 µM and 11 µM | 115 µM | 0.271 µM | 0.318 µM |
| Cc1ccccc1C(=O)N1CCN(C(=O)c2ccccc2C)CC1 |  | > 100 µM |  |  |  | > 100 µM |  | > 100 µM |  | > 100 µM |  | > 100 µM |  | > 100 µM |  | > 100 µM | > 100 µM | > 100 µM |  |  |
| O=[N+]([O-])c1ccc(-c2ccc(-c3csc(Nc4ccccc4)n3)o2)cc1 |  | 31.1 µM |  | 58.2 µM |  | > 63.9 µM |  | 44.9 µM |  | 39 µM |  | 37 µM |  | 13.5 µM |  | > 67.4 µM | 4.76 µM | > 65.8 µM |  |  |
| CCCCN(CC)CC(C(C)=O)c1c(O)c2ccccc2oc1=O (stereo not given) |  | > 100 µM |  | > 100 µM |  | > 100 µM |  | > 100 µM |  | > 100 µM |  |  |  | > 100 µM |  | > 100 µM | > 100 µM | > 100 µM |  |  |
| COc1ccc(CN2CCC/C=C/CC(Cl)(Cl)C2=O)cc1 |  | 78.8 µM |  | 41.2 µM |  | > 100 µM |  | > 100 µM |  | 57.4 µM |  | 62.5 µM |  | 69.2 µM |  | 69.4 µM | 68.8 µM | 95.4 µM |  |  |
| COC(=O)C1(O)CC(=O)CCC1c1ccc(OC)cc1 (stereo not given) |  | > 100 µM |  | > 100 µM |  | > 100 µM |  | > 100 µM |  | > 100 µM |  | > 100 µM |  | > 100 µM |  | > 100 µM | > 100 µM | > 100 µM |  |  |
| CCC(=O)Nc1nc2c(ncn2C2OC(COC(=O)CC)C(OC(=O)CC)C2OC(=O)CC)c(=O)[nH]1 (stereo not given) |  | > 100 µM |  |  |  | > 100 µM |  | > 100 µM |  | > 100 µM |  |  |  | > 100 µM |  | > 100 µM | > 100 µM | > 100 µM |  |  |
| CSC(=NCCc1c[nH]c2ccccc12)NC#N |  | > 100 µM |  | > 100 µM |  | > 100 µM |  | > 100 µM |  | > 100 µM |  |  |  | > 100 µM |  | > 100 µM | > 100 µM | > 100 µM |  |  |
| c1ccc(N2N=C(c3ccco3)CC2c2ccco2)cc1 (stereo not given) |  | > 100 µM |  | > 100 µM |  | > 100 µM |  | > 100 µM |  | > 100 µM |  |  |  | 73.4 µM |  | > 100 µM | > 100 µM | > 100 µM |  |  |
| C=CC(OCC)(OCC)OCC |  | > 100 µM |  | > 100 µM |  | > 100 µM |  | > 100 µM |  | > 100 µM |  | > 100 µM |  | > 100 µM |  | > 100 µM | 65.4 µM | > 100 µM |  |  |
| O=[N+]([O-])c1ccc(Sc2c3ccccc3nc3cc(Cl)ccc23)cc1 |  |  | > 100 µM | > 100 µM | > 100 µM | > 100 µM | > 100 µM | > 100 µM | > 100 µM | > 100 µM |  | > 100 µM |  | > 100 µM |  | > 100 µM | 68.1 µM | > 100 µM | > 100 µM |  |
| CCNC(=O)COc1ccc(Cl)cc1Cl |  | > 100 µM |  | > 100 µM |  | > 100 µM |  | > 100 µM |  | > 100 µM |  | > 100 µM |  | > 100 µM |  | > 100 µM | > 100 µM | > 100 µM |  |  |
